These results are taken from ChEMBL document CHEMBL1165960, “Identification of the three-dimensional pharmacophore of kappa-opioid receptor agonists” (Bioorg Med Chem, 2010).

Assay [1] addresses Kappa-type opioid receptor (Homo sapiens, UniProt P41145). Description: Binding affinity to kappa opioid receptor.
Assay [2] in a line: Selectivity ratio of Ki for mu opioid receptor to kappa opioid receptor.

Each structure is given as a SMILES string.

Kappa-type opioid receptor, sequence (P41145 whole entry): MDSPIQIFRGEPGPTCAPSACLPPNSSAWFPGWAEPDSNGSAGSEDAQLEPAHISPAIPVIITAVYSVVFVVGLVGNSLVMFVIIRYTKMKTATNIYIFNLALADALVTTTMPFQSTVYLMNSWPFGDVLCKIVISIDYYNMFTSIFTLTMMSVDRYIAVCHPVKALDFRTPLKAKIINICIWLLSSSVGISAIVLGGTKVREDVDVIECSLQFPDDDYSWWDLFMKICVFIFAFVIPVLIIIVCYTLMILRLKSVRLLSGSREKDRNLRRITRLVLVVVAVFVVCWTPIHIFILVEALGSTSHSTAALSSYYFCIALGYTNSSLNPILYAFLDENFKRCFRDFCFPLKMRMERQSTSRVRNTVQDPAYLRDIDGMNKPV

In assay [1], `NC(=O)[C@H]1CSSC[C@@H](NC(=O)[C@@H](N)Cc2ccc(O)cc2)C(=O)N[C@@H](Cc2ccccc2)C(=O)N1` came in with a Ki of 38.7 nM. In addition, the Ratio Ki in assay [2] was 0.03. The compound `COc1ccc([C@H]2CN3C(=NC[C@@H]3C)N2CCCc2ccccc2)cc1` registered a Ki in assay [1] of 39 nM. Turning to `CCC12CCN(CC3(O)CC3)C(Cc3ccc(O)cc31)C2(C)C` (stereo unspecified) [BREMAZOCINE], the Ki in assay [1] is 0.04 nM. Further, the Ratio Ki in assay [2] stood at 3.8. The corresponding values for `O=C(Nc1ccccc1)[C@H]1O[C@@]23CCC1(O)[C@@H]1Oc4c(O)ccc5c4[C@@]12CCN(CC1CC1)[C@@H]3C5` (single isomer, unassigned) are 0.111 nM and 1.9. For `COC(=O)[C@]12CN(C)C[C@](C(=O)OC)(C1=O)[C@@H](c1ccccn1)N(C)[C@H]2c1ccccn1` the same measures were 15 nM and greater than 66.7. `O=C(Nc1ccccc1)[C@@H]1O[C@@]23CC[C@@]1(O)[C@@H]1Oc4c(O)ccc5c4[C@@]12CCN(CC1CC1)[C@@H]3C5` had a Ki in assay [1] of 0.152 nM. Moreover, in assay [2], the Ratio Ki turned out to be 1.3. In turn, `CN1c2ccccc2C(c2ccccc2F)=NCC1CNC(=O)c1ccsc1` (stereo unspecified) [TIFLUADOM] displayed a Ki in assay [1] of 0.17 nM. Moreover, in assay [2], the Ratio Ki came out at 8.8.

In the case of `O=C(NC[C@H]1C[C@]23CCN(CC4CC4)[C@H](Cc4ccc(O)cc42)[C@]3(O)CO1)c1ccccc1`, the Ki in assay [1] was found to be 0.135 nM. For the same compound, in assay [2], the Ratio Ki is 1.

As to `CN(C(=O)/C=C/c1ccco1)[C@@H]1CC[C@@]2(O)[C@H]3Cc4ccc(O)c5c4[C@@]2(CCN3CC2CC2)[C@H]1O5`, in assay [2], the Ratio Ki stood at 2.6.

For orientation: Ki means the equilibrium dissociation constant of an inhibitor or competing ligand from its target. The low end stands for higher affinity, the high end for lower affinity.
